Laboratory results published in patent US8247458B2, “Therapeutic agent for diabetic neuropathy” (Taiho Pharmaceutical Co., Ltd., priority 2006, dated 2012).

System: diabetes model rats induced by STZ
Experiment: von Frey test in streptozotocin-induced diabetic neuropathy model rats
Type: in vivo, rat
Details: vs STZ control group; for suppression effect of neuropathy (pain threshold, von Frey test): p value under 0.001%; for analgesic effect (pain threshold, threshold of the escape reaction of limb, von Frey test): first day of the measurement (first dose)
Protocol: By use of male rats with the weight of more than 160 g, 50 mg/kg of streptozotocin (STZ, Sigma-Aldrich Co.) was administered thereto intravenously at the dose of 2 mL/kg to prepare the diabetes model rats induced by STZ (Malcangio M. et al., Pain, 1998). Animals with the blood sugar level of more than 200 mg/dL were adopted as diabetes models. For the measurements of the blood sugar level, the blood (2 μL) collected from the tail vein was measured by use of a measurement chip (Glutest Sensor, Arkray, Inc.) and a portable instrument for measuring blood sugar of Glutest PRO R (Model GT-1661, Arkray, Inc.).
The pain threshold was measured by carrying out the von Frey test on both right and left foot pats of the rats by use of Dynamic Planter Aesthesiometer (Model No. 37400, Ugo Basile, Inc.), and its maximum pressure was set to be 30.0 g, and the arriving time to the maximum pressure was set to be 40 seconds. Eight days after the administration of STZ, the individuals with the pain threshold of higher than a certain level were selected and divided into the groups so that the measured pain thresholds might become even in each group. To the diabetes model rats induced by STZ was administered continuously for one week either 30 mg/kg of suplatast tosylate intraperitoneally or 100 mg/kg of the same orally, and the intraperitoneally administered group and the orally administered group were produced respectively. The diabetes model rats induced by STZ to which solvent (distilled water) was administered orally were designated to the STZ control group. Moreover, the animals of no treatment, i.e. no administration of STZ, to which solvent (distilled water) was administered orally were used as the normal control group. On the 1st, 4th and 7th days after the administration, were measured the pain thresholds of the right and left foot pats for each of the group (8 rats/group), and the analgesic effect was estimated by the threshold of the escape reaction of limb (the total of pain threshold value both of the right and left foot pats). The pain thresholds were measured from 1 to 1.5 hours after the administration, respectively. The Student's test, which is a test for every 2 groups, was applied to the significant difference test of the average value, and the significant level were shown by the following indications:
## (Normal control group vs. STZ control group): p value under 0.001%, and
** (STZ control group vs. orally administered group or intraperitoneally administered group): p value under 0.001%
The orally administered group and the intraperitoneally administered group were compared with the STZ control groups, respectively. Moreover, the STZ control groups were compared with the normal control groups, and the establishments of the diabetes neuropathy model were respectively judged.

CCOCC(O)COc1ccc(NC(=O)CC[S+](C)C)cc1.Cc1ccc(S(=O)(=O)[O-])cc1 (racemic) [suplatast tosylate, (±)-[2-[4-(3-Ethoxy-2-hydroxypropoxy)phenylcarbamoyl]-ethyl]dimethylsulfonium p-toluenesulfonate]
suppression effect of neuropathy (pain threshold, von Frey test) (30 mg/kg intraperitoneal daily, 4th day): significant suppression effects of neuropathy | suppression effect of neuropathy (pain threshold, von Frey test) (30 mg/kg intraperitoneal daily, 7th day): significant suppression effects of neuropathy | analgesic effect (pain threshold, threshold of the escape reaction of limb, von Frey test) (30 mg/kg intraperitoneal): analgesic effects were not found | suppression effect of neuropathy (pain threshold, von Frey test) (100 mg/kg oral daily, 4th day): significant suppression effects of neuropathy | suppression effect of neuropathy (pain threshold, von Frey test) (100 mg/kg oral daily, 7th day): significant suppression effects of neuropathy | analgesic effect (pain threshold, threshold of the escape reaction of limb, von Frey test) (100 mg/kg oral): analgesic effects were not found
